In ChEMBL document CHEMBL4507287, “Data for DCP probe MRL-650” (2021):

Experiments:
[1] = molecular target: MAP kinase-activated protein kinase 2 (Homo sapiens) (UniProt P49137); conditions: Compound concentration 1000.0 nM
[2] = molecular target: Rhodopsin kinase GRK7 (Homo sapiens) (UniProt Q8WTQ7); conditions: Compound concentration 1000.0 nM
[3] = molecular target: Serine/threonine-protein kinase 32A (Homo sapiens) (UniProt Q8WU08); conditions: Compound concentration 1000.0 nM
[4] = molecular target: D(2) dopamine receptor (Homo sapiens) (UniProt P14416); conditions: Compound concentration 10.0 uM
[5] = molecular target: Tyrosine-protein kinase Yes (Homo sapiens) (UniProt P07947); conditions: Compound concentration 1000.0 nM
[6] = molecular target: Mitogen-activated protein kinase 14 (Homo sapiens) (UniProt Q16539); conditions: Compound concentration 1000.0 nM
[7] = molecular target: Serine/threonine-protein kinase PknB (Mycobacterium tuberculosis) (UniProt P9WI81); conditions: Compound concentration 1000.0 nM
[8] = molecular target: Serine/threonine-protein kinase 24 (Homo sapiens) (UniProt Q9Y6E0); conditions: Compound concentration 1000.0 nM
[9] = molecular target: Tyrosine-protein kinase CSK (Homo sapiens) (UniProt P41240); conditions: Compound concentration 1000.0 nM
[10] = molecular target: Tyrosine-protein kinase FRK (Homo sapiens) (UniProt P42685); conditions: Compound concentration 1000.0 nM
[11] = molecular target: Proto-oncogene tyrosine-protein kinase ROS (Homo sapiens) (UniProt P08922); conditions: Compound concentration 1000.0 nM
[12] = molecular target: Bone morphogenetic protein receptor type-1A (Homo sapiens) (UniProt P36894); conditions: Compound concentration 1000.0 nM
[13] = molecular target: MAP kinase-interacting serine/threonine-protein kinase 1 (Homo sapiens) (UniProt Q9BUB5); conditions: Compound concentration 1000.0 nM
[14] = molecular target: Beta-adrenergic receptor kinase 1 (Homo sapiens) (UniProt P25098); conditions: Compound concentration 1000.0 nM
[15] = molecular target: Proto-oncogene tyrosine-protein kinase receptor Ret (Homo sapiens) (UniProt P07949); conditions: Compound concentration 1000.0 nM
[16] = molecular target: MAP kinase-activated protein kinase 5 (Homo sapiens) (UniProt Q8IW41); conditions: Compound concentration 1000.0 nM
[17] = molecular target: Serine/threonine-protein kinase VRK2 (Homo sapiens) (UniProt Q86Y07); conditions: Compound concentration 1000.0 nM
[18] = test system: Phosphatidylinositol 4,5-bisphosphate 3-kinase catalytic subunit alpha isoform (Homo sapiens), P42336 [E542K]; conditions: Compound concentration 1000.0 nM
[19] = molecular target: TGF-beta receptor type-1 (Homo sapiens) (UniProt P36897); conditions: Compound concentration 1000.0 nM
[20] = molecular target: Cyclin-dependent kinase 14 (Homo sapiens) (UniProt O94921); conditions: Compound concentration 1000.0 nM
[21] = molecular target: Activin receptor type-1-like (Homo sapiens) (UniProt P37023); conditions: Compound concentration 1000.0 nM
[22] = molecular target: Mitogen-activated protein kinase kinase kinase 13 (Homo sapiens) (UniProt O43283); conditions: Compound concentration 1000.0 nM
[23] = test system: Receptor-type tyrosine-protein kinase FLT3 (Homo sapiens), P36888 [N841I]; conditions: Compound concentration 1000.0 nM
[24] = molecular target: Calcium/calmodulin-dependent protein kinase kinase 1 (Homo sapiens) (UniProt Q8N5S9); conditions: Compound concentration 1000.0 nM
[25] = molecular target: Macrophage colony-stimulating factor 1 receptor (Homo sapiens) (UniProt P07333); conditions: Compound concentration 1000.0 nM
[26] = molecular target: Homeodomain-interacting protein kinase 3 (Homo sapiens) (UniProt Q9H422); conditions: Compound concentration 1000.0 nM
[27] = test system: Epidermal growth factor receptor (Homo sapiens), P00533 [UNDEFINED MUTATION]; conditions: Compound concentration 1000.0 nM
[28] = test system: Mast/stem cell growth factor receptor Kit (Homo sapiens), P10721 [D816V]; conditions: Compound concentration 1000.0 nM
[29] = test system: ALK tyrosine kinase receptor (Homo sapiens), Q9UM73 [L1196M]; conditions: Compound concentration 1000.0 nM
[30] = molecular target: Cyclin-dependent kinase 13 (Homo sapiens) (UniProt Q14004); conditions: Compound concentration 1000.0 nM
[31] = molecular target: Serine/threonine-protein kinase MARK2 (Homo sapiens) (UniProt Q7KZI7); conditions: Compound concentration 1000.0 nM
[32] = molecular target: Serine/threonine-protein kinase D2 (Homo sapiens) (UniProt Q9BZL6); conditions: Compound concentration 1000.0 nM
[33] = test system: Receptor-type tyrosine-protein kinase FLT3 (Homo sapiens), P36888 [D835H]; conditions: Compound concentration 1000.0 nM
[34] = molecular target: LIM domain kinase 2 (Homo sapiens) (UniProt P53671); conditions: Compound concentration 1000.0 nM
[35] = molecular target: Serine/threonine-protein kinase WNK4 (Homo sapiens) (UniProt Q96J92); conditions: Compound concentration 1000.0 nM
[36] = molecular target: Ephrin type-A receptor 4 (Homo sapiens) (UniProt P54764); conditions: Compound concentration 1000.0 nM
[37] = molecular target: Serine/threonine-protein kinase Nek11 (Homo sapiens) (UniProt Q8NG66); conditions: Compound concentration 1000.0 nM
[38] = molecular target: Cyclin-dependent kinase-like 5 (Homo sapiens) (UniProt O76039); conditions: Compound concentration 1000.0 nM
[39] = molecular target: Serine/threonine-protein kinase PAK 5 (Homo sapiens) (UniProt Q9P286); conditions: Compound concentration 1000.0 nM
[40] = molecular target: Mitogen-activated protein kinase kinase kinase kinase 2 (Homo sapiens) (UniProt Q12851); conditions: Compound concentration 1000.0 nM
[41] = molecular target: Myosin light chain kinase family member 4 (Homo sapiens) (UniProt Q86YV6); conditions: Compound concentration 1000.0 nM
[42] = molecular target: Tyrosine-protein kinase BTK (Homo sapiens) (UniProt Q06187); conditions: Compound concentration 1000.0 nM
[43] = molecular target: Myotonin-protein kinase (Homo sapiens) (UniProt Q09013); conditions: Compound concentration 1000.0 nM
[44] = molecular target: Macrophage-stimulating protein receptor (Homo sapiens) (UniProt Q04912); conditions: Compound concentration 1000.0 nM
[45] = molecular target: Dual specificity protein kinase CLK4 (Homo sapiens) (UniProt Q9HAZ1); conditions: Compound concentration 1000.0 nM
Dual specificity protein kinase CLK4 (Homo sapiens), sequence (Q9HAZ1 whole entry, looked up): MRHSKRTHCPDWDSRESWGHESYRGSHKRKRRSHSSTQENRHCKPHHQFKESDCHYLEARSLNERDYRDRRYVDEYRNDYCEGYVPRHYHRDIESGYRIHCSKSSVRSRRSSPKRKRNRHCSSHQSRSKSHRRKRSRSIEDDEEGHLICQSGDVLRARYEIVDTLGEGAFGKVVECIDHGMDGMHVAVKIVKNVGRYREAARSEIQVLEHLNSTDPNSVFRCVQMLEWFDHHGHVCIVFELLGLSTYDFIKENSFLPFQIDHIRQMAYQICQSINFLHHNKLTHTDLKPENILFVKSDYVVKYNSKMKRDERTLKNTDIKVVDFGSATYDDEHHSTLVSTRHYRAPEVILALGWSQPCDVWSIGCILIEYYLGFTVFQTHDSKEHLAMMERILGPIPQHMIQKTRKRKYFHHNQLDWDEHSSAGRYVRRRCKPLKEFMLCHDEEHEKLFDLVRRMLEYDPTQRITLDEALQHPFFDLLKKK

Serine/threonine-protein kinase PknB (Mycobacterium tuberculosis), sequence (P9WI81 whole entry): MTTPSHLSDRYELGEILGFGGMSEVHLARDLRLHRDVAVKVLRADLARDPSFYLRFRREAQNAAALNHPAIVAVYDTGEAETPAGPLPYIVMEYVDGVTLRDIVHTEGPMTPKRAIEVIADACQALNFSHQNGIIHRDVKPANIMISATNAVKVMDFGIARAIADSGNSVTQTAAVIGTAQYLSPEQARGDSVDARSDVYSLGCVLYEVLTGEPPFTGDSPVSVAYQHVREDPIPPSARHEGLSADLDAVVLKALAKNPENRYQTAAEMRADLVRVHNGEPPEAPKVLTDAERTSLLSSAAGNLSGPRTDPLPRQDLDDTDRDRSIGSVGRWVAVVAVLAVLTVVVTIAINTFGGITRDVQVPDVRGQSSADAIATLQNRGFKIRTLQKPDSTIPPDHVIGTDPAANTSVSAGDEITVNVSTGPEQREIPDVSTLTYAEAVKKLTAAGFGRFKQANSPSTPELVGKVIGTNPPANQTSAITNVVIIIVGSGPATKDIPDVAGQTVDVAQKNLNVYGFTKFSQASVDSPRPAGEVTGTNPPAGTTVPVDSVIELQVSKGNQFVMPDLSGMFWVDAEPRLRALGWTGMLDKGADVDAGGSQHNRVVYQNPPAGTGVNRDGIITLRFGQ
Mast/stem cell growth factor receptor Kit (Homo sapiens), P10721 [D816V], sequence (P10721 whole entry D816V): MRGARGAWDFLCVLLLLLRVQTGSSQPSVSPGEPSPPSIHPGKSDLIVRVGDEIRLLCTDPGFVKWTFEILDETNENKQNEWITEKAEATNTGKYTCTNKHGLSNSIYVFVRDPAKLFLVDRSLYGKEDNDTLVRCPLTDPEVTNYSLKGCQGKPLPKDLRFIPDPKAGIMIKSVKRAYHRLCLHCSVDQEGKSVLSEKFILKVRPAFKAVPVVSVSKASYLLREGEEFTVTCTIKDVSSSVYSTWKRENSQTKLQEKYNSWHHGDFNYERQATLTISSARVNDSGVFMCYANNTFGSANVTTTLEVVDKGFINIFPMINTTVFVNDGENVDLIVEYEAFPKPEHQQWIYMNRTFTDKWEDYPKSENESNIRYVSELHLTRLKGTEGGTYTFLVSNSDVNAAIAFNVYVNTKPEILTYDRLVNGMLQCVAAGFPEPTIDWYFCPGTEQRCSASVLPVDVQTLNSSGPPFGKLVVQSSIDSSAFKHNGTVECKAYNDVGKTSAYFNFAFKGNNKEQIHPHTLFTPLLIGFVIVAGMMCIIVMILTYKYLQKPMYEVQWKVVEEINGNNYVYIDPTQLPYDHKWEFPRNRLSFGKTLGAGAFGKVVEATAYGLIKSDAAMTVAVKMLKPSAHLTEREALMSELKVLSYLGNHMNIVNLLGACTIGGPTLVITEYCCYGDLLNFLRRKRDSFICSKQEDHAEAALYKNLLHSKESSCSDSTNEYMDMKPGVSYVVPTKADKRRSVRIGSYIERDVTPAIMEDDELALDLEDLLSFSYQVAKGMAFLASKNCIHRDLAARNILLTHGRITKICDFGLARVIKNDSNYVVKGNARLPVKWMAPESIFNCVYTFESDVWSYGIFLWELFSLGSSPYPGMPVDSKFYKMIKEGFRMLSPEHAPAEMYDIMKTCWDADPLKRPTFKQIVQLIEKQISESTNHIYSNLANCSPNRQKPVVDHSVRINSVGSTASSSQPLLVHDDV
Macrophage colony-stimulating factor 1 receptor (Homo sapiens), sequence (P07333 whole entry): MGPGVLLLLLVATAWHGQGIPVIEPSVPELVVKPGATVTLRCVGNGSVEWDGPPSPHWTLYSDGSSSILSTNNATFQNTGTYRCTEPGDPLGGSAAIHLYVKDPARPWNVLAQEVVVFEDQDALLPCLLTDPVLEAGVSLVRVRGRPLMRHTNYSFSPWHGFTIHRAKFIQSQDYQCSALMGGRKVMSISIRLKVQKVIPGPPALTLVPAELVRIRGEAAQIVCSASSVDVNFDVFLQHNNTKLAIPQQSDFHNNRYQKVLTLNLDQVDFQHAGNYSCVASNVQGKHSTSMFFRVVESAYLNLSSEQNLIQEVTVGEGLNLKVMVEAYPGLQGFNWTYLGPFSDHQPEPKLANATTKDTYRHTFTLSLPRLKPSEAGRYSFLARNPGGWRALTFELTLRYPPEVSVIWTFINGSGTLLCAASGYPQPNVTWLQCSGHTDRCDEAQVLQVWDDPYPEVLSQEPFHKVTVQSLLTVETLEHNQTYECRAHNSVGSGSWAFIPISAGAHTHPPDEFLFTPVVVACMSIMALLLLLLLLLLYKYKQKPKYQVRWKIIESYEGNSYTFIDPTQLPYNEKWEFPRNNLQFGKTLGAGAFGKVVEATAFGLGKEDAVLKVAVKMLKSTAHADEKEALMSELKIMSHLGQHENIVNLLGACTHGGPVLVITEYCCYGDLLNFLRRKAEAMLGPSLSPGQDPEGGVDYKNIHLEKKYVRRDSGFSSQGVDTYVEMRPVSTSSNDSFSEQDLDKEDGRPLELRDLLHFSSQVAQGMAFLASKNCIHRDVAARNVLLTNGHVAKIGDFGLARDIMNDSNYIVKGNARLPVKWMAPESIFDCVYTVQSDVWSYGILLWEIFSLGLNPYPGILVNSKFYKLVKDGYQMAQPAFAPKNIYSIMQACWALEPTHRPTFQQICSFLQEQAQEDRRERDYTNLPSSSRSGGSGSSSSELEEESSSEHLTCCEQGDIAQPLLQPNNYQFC
Phosphatidylinositol 4,5-bisphosphate 3-kinase catalytic subunit alpha isoform (Homo sapiens), P42336 [E542K], sequence (P42336 whole entry E542K, canonical isoform): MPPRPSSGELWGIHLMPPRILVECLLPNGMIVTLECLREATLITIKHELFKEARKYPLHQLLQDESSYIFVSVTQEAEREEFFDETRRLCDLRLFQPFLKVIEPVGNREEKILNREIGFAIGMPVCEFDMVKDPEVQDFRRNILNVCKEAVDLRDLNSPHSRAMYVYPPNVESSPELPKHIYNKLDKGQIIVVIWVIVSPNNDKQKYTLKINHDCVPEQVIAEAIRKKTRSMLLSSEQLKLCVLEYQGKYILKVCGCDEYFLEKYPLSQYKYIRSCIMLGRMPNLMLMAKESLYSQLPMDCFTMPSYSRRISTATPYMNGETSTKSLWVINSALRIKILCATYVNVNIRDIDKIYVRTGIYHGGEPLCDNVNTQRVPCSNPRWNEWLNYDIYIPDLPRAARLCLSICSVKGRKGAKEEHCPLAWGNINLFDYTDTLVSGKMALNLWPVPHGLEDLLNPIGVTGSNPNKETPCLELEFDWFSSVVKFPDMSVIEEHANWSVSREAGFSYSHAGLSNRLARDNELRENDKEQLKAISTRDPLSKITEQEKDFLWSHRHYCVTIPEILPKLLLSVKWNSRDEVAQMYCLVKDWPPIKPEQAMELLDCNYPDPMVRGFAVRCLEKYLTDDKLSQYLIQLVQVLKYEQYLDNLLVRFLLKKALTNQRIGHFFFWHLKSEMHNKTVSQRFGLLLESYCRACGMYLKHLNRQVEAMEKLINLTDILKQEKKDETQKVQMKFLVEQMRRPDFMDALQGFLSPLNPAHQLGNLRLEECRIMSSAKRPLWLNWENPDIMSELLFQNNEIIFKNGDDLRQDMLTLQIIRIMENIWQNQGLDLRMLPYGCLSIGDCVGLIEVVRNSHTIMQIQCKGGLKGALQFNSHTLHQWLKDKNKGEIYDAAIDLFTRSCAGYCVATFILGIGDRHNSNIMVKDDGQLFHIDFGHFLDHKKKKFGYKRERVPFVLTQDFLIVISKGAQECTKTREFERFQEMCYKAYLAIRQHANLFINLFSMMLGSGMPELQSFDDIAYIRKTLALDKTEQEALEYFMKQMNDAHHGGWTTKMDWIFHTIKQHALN
Tyrosine-protein kinase Yes (Homo sapiens), sequence (P07947 2-543 limits assumed): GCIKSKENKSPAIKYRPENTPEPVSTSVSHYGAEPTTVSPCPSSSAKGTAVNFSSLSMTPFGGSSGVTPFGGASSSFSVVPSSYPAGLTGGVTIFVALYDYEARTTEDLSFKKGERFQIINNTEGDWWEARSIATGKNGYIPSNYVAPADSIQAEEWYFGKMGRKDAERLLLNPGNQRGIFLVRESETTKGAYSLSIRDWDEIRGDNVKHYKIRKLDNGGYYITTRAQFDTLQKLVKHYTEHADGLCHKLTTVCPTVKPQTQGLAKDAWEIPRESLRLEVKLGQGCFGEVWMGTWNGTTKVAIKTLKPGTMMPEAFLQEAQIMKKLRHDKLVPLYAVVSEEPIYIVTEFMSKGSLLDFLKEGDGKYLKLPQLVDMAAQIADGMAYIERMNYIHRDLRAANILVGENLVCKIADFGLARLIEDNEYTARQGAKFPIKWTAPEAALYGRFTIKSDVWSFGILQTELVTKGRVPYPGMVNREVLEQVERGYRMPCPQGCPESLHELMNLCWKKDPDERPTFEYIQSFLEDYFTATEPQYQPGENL
Myosin light chain kinase family member 4 (Homo sapiens), sequence (Q86YV6 whole entry): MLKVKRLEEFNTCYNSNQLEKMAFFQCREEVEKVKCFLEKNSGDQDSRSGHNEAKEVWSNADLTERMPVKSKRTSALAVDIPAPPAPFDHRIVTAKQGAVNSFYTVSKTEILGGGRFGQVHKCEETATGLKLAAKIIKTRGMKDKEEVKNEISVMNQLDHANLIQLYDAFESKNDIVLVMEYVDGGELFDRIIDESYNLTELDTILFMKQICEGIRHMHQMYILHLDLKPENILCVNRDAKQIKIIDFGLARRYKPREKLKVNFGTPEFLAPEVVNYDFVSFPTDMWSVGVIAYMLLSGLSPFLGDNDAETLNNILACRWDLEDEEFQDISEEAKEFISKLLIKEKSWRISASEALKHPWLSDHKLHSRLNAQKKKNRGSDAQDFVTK

CC(=O)Nc1c(C(C)=O)c(=O)n(C)c2nc(-c3ccc(Cl)cc3Cl)c(-c3ccc(Cl)cc3)cc12 [NAPHTHYRIDINONE]
inactive: residual activity [1] 100% | residual activity [2] 100% | residual activity [3] 82% | inhibition [4] 5.73% | residual activity [5] 100% | residual activity [6] 100% | residual activity [7] 100% | residual activity [8] 100% | residual activity [9] 100% | residual activity [10] 100% | residual activity [11] 99% | residual activity [12] 85% | residual activity [13] 100% | residual activity [14] 84% | residual activity [15] 100% | residual activity [16] 100% | residual activity [17] 100% | residual activity [18] 94% | residual activity [19] 82% | residual activity [20] 100% | residual activity [21] 100% | residual activity [22] 100% | residual activity [23] 100% | residual activity [24] 100% | residual activity [25] 100% | residual activity [26] 97% | residual activity [27] 92% | residual activity [28] 100% | residual activity [29] 100% | residual activity [30] 100% | residual activity [31] 100% | residual activity [32] 100% | residual activity [33] 100% | residual activity [34] 100% | residual activity [35] 100% | residual activity [36] 96% | residual activity [37] 100% | residual activity [38] 100% | residual activity [39] 100% | residual activity [40] 92% | residual activity [41] 100% | residual activity [42] 88% | residual activity [43] 100% | residual activity [44] 100% | residual activity [45] 100%

CC(=O)c1c(NS(C)(=O)=O)c2cc(-c3ccc(Cl)cc3)c(-c3ccc(Cl)cc3Cl)nc2n(C)c1=O [MRL-CB1-NC]
inactive: residual activity [1] 80% | residual activity [2] 83% | residual activity [3] 87% | inhibition [4] 2.43% | residual activity [5] 96% | residual activity [6] 100% | residual activity [7] 83% | residual activity [8] 97% | residual activity [9] 100% | residual activity [10] 100% | residual activity [11] 100% | residual activity [12] 95% | residual activity [13] 100% | residual activity [14] 74% | residual activity [15] 93% | residual activity [16] 89% | residual activity [17] 100% | residual activity [18] 76% | residual activity [19] 100% | residual activity [20] 100% | residual activity [21] 100% | residual activity [22] 71% | residual activity [23] 100% | residual activity [24] 100% | residual activity [25] 100% | residual activity [26] 88% | residual activity [27] 100% | residual activity [28] 100% | residual activity [29] 97% | residual activity [30] 96% | residual activity [31] 100% | residual activity [32] 88% | residual activity [33] 96% | residual activity [34] 91% | residual activity [35] 96% | residual activity [36] 98% | residual activity [37] 79% | residual activity [38] 94% | residual activity [39] 98% | residual activity [40] 82% | residual activity [41] 100% | residual activity [42] 84% | residual activity [43] 89% | residual activity [44] 88% | residual activity [45] 100%
